Source: article PMC6630668, “Comprehensive Analysis of Secondary Metabolites in Usnea longissima (Lichenized Ascomycetes, Parmeliaceae) Using UPLC-ESI-QTOF-MS/MS and Pro-Apoptotic Activity of Barbatic Acid” (Molecules, 2019)

What was measured:
A549 (Human lung cancer) = experiment: MTT cytotoxicity assay, A549; type: cell-based; conditions: 50% cell proliferation inhibitory concentration after 48 h of compound treatment, compounds
Description: (§1) MTT assay was performed as described earlier. Cells were plated at a density of 1 × 10^4 cells/well in 100 µL Dulbecco’s Modified Eagle Medium (DMEM)/Minimum Essential Media (MEM) medium, supplemented with 10% FBS in 96-well plates for 24 h. After incubation, cells were treated with standard doxorubicin and test compounds for 48 h. After 48 h of treatment, 10 µL MTT (3-(4,5-dimethylthiazol-2 yl)-2,5-diphenyl tetrazolium bromide) (5 mg/mL) were added to each well and the plates were further incubated for 4 h. After 4 h, 100 µL DMSO was added to each well and absorbance at 570 nm wavelength was recorded spectrophotometrically.

[1] = tested on: HeLa (Human cervical cancer); experiment: MTT cytotoxicity assay, HeLa; type: cell-based; conditions: 50% cell proliferation inhibitory concentration after 48 h of compound treatment, compounds
Description: as §1

[2] = tested on: HEK-293 (Normal cell line, Human embryonic kidney); experiment: MTT cytotoxicity assay, HEK-293; type: cell-based; conditions: compounds
Description: as §1

[3] = tested on: MCF-7 (Human breast cancer); experiment: MTT cytotoxicity assay, MCF-7; type: cell-based; conditions: MCF7, 50% cell proliferation inhibitory concentration after 48 h of compound treatment, compounds
Description: as §1

[4] = tested on: DU-145 (Human prostate cancer); experiment: MTT cytotoxicity assay, DU-145; type: cell-based; conditions: 50% cell proliferation inhibitory concentration after 48 h of compound treatment, compounds
Description: as §1

CDK4 and Cyclin D1 = experiment: Immunoblot assay for CDK4 and Cyclin D1; type: cell-based, human; conditions: A549, 21 at 1 and 2 µM for 48 h; doxorubicin 1 µM
Excerpt: (§2) Following treatments, cells were washed twice with PBS and lysed in 1× SDS sample buffer. Proteins were separated on 10% SDS-polyacrylamide gels and transferred onto nitrocellulose membranes. Membranes were washed twice with tween Tris-buffered saline before blocking nonspecific binding with 5% nonfat dry milk (Blotto, Santa Cruz Biotechnology, Dallas, TX, USA) or 3% bovine serum albumin. Anti-Poly ADP-ribose Polymerase (PARP) (11835238001-Roche) antibody, that detects total and cleaved PARP was used at 1:1000 dilutions, and membranes were incubated for 2 h at room temperature. Anti-Cyclin D1 (C7464, Sigma Aldrich) and anti-CDK4 (SAB140559, Sigma Aldrich) were detected similar to PARP protein. Membranes were washed three times, and detection was performed using horseradish peroxidase-conjugated secondary antibody as described previously.

[5] = tested on: Poly (ADP-ribose) polymerase (PARP); experiment: Immunoblot assay for PARP cleavage; type: cell-based, human; conditions: A549, 21 at 1 and 2 µM for 48 h; doxorubicin 1 µM
Excerpt: as §2

A549 cells [6] = experiment: Annexin V-FITC assay for apoptosis; type: cell-based, human; conditions: A549, 24 h; for total apoptosis: control 1.12%
Description: A549 cells were seeded in six-well plates and incubated for 24 h. After incubation, cells were treated with doxorubicin at 2 µM and compound 21 at 1 and 2 µM concentrations and further incubated for 24 h. After 24 h treatment, cells were harvested by trypsinization. After harvesting, cells were washed with PBS at 5000 rpm. After washing, cells were stained with Annexin-V and propidium iodide using Annexin-V apoptosis detection kit (Sigma-Aldrich). Annexin V-FITC assay was performed as described earlier.

caspase-3 = experiment: Caspase-3 assay (fluorimetric, Ac-DEVD-AMC); type: cell-based, human; conditions: A549, 2 µM
Description: Following treatment, cell lysates were washed twice with phosphate-buffered saline and dissolved in lysis buffer (50 mM HEPES (pH 7.4) containing 5 mM CHAPS and 5 mM DTT) for 15 min on ice. Later, cells were centrifuged at 14,000× g for 15 min, under cold conditions, and collected the clear supernatant. The supernatant was added to assay buffer (20 mM HEPES (pH 7.4), 2 mM EDTA, 0.1% CHAPS, and 5 mM DTT) containing caspase 3 substrate (Ac-DEVD-AMC, 40 μM) in a final volume of 100 μL as described earlier. The incubation was performed for 1 h at 37 °C with readings recorded at 5-min intervals. Fluorescence released by AMC was measured at 360-nm and 460-nm excitation and emission wavelengths, respectively. Values were normalized to protein concentration and expressed as fold change of activity relative to DMSO control.

A549 cells [7] = experiment: Hoechst staining for apoptosis; type: cell-based, human; conditions: A549, 1 and 2 µM, 48 h
Description: A549 cells were seeded on cover slips and incubated for 24 h. After incubation, cells were treated with doxorubicin at 2 µM and compound 21 at 1 and 2 µM concentrations for 48 h. After 48 h treatment, Hoechst staining was performed using H33258 dye. Florescence images were captured by Olympus microscope using 10X lens.

A549 cells [8] = experiment: Cell cycle analysis by flow cytometry; type: cell-based, human; conditions: A549, 24 h
Description: Flow cytometric analysis (FACS) was performed to evaluate the cell cycle arrest. A549 cells were seeded, incubated for 24 h and then treated with doxorubicin at 2 µM and compound 21 at 1 and 2 µM concentrations for 24 h. After that, cells were harvested and washed with phosphate buffered saline (PBS) followed by fixation in ice cold 70% ethanol. After fixation cells were incubated with RNase A (0.1 mg/mL) at 37 °C for 30 min and stained with propidium iodide (Sigma Aldrich, St. Louis, MO, USA) (50 μg/mL) for 30 min on ice in dark. Cell cycle analysis was performed by flow cytometry (Becton Dickinson FACS Caliber instrument).

human cancer cell lines = experiment: MTT cytotoxicity assay, panel of cancer cell lines; type: cell-based; conditions: HeLa, MCF-7 and DU-145, range over the cell lines, read-out: IC50 on additional cancer cell lines
Description: as §1

[9] = Homo sapiens, 2 µM, read-out: live (viable) cells (LL)
[10] = Homo sapiens, HEK293, 48 h, after 48 h of compound treatment

CC(=O)C1=C(O)C=C2Oc3c(C(C)=O)c(O)c(C)c(O)c3C2(C)C1=O (single isomer, unassigned; (+)) [compound 22, (+)-usnic acid] showed an IC50 (A549 (Human lung cancer)) of 13.8 ± 1.11 µM, an IC50 [1] of 18.9 ± 2.06 µM and an IC50 ([2]; Homo sapiens, HEK293, after 48 h of compound treatment) of 125 ± 1.98 µM. For the same compound, the IC50 [3] was 19.2 ± 2.05 µM and the IC50 [4] was 24.2 ± 0.99 µM.
For COc1cccc2c1C(=O)c1c(O)c3c(c(O)c1C2=O)C[C@@](O)(C(=O)CO)C[C@@H]3O[C@H]1C[C@H](N)[C@H](O)[C@H](C)O1 [Doxorubicin, doxorubicin, reference compound], the “CDK4 and Cyclin D1 protein levels (in words)” value (CDK4 and Cyclin D1) was “accumulated”, the “PARP cleavage (in words)” value [5] was “robust cleavage of PARP protein” and the IC50 (A549 (Human lung cancer)) was 1.95 ± 0.97 µM. The “early apoptotic cells (LR)” value (A549 cells [6]; 2 µM) was 22.3%, the “late apoptotic cells (UR)” value (A549 cells [6]; 2 µM) was 9.79% and the “necrotic cells (UL)” value (A549 cells [6]; 2 µM) was 0.12%. For the same compound, the viability at 2 µM (A549 cells [6]; [9]) was 67.8%, the IC50 [1] was 1.55 ± 1.32 µM and the IC50 [3] was 1.62 ± 0.36 µM. It also gave an IC50 [4] of 1.51 ± 0.84 µM.
C[C@@H]1C(=O)OC(CCCCCCCCCCCCC[C@@H](C)O)C1C(=O)O (stereo partly drawn) [compound 19, 18R-hydroxy-dihydroalloprotolichesterinic acid] was tested, and the IC50 (A549 (Human lung cancer)) was 20.2 ± 1.99 µM, the IC50 [1] was 22.7 ± 0.97 µM and the IC50 [2, 10] was 55.9 ± 1.55 µM. For the same compound, the IC50 [3] was 20 ± 0.74 µM and the IC50 [4] was 27 ± 2.92 µM.
CC1=C(C(=O)O)[C@H](CCCCCCCCCCCCCC(C)O)OC1=O (stereo partly drawn) [compound 20, neuropogolic acid] showed an IC50 (A549 (Human lung cancer)) of 19.1 ± 3.86 µM, an IC50 [1] of 23.6 ± 0.74 µM and an IC50 [2, 10] of 113 ± 3.82 µM. For the same compound, the IC50 [3] was 22.3 ± 4.05 µM and the IC50 [4] was 26.1 ± 1.09 µM.
COc1cc(C)c(C(=O)Oc2cc(C)c(C(=O)O)c(O)c2C)c(O)c1C [compound 21, barbatic acid] was tested, and the “caspase-3 activity (in words)” value (caspase-3) was “increased maximally”, the “CDK4 and Cyclin D1 protein levels (in words)” value (CDK4 and Cyclin D1) was “accumulated” and the “Hoechst staining, nuclear morphology (in words)” value (A549 cells [7]) was “chromatin condensation and fragmented nuclei”. The “PARP cleavage (in words)” value [5] was “robust cleavage of PARP protein”, the IC50 (A549 (Human lung cancer)) was 1.78 ± 0.62 µM and the “early apoptotic cells (LR)” value (A549 cells [6]; 1 µM) was 7.68%. The “late apoptotic cells (UR)” value (A549 cells [6]; 1 µM) was 0.10%, the “necrotic cells (UL)” value (A549 cells [6]; 1 µM) was 0.00% and the total apoptosis (A549 cells [6]; 1 µM) was “about 7.78%”. The “early apoptotic cells (LR)” value (A549 cells [6]; 2 µM) was 9.05%, the “late apoptotic cells (UR)” value (A549 cells [6]; 2 µM) was 0.24% and the “necrotic cells (UL)” value (A549 cells [6]; 2 µM) was 0.07%. It also gave a total apoptosis (A549 cells [6]; 2 µM) of roughly 9.29%, a viability at 1 µM (A549 cells [6]; Homo sapiens, 1 µM, read-out: live (viable) cells (LL)) of 92.2% and a viability at 2 µM (A549 cells [6]; [9]) of 90.6%. For the same compound, the IC50 [1] was 3.02 ± 0.11 µM, the “cell accumulation in G0/G1 phase” value (A549 cells [8]; 1 µM) was 70.9% and the “cell accumulation in G0/G1 phase” value (A549 cells [8]; 2 µM) was 74.4%. It also gave an IC50 [2, 10] greater than 100 µM, an IC50 ([2]; after 48 h of compound treatment) of 125 ± 2.65 µM and an IC50 (human cancer cell lines) of 3.02 to 9.03 µM. It also gave an IC50 [3] of 3.16 ± 0.88 µM and an IC50 [4] of 9.03 ± 2.11 µM.
